According to patent publication US9957264B2 (Merck Sharp & Dohme Corp., priority 2013, dated 2018):

Columns and labels:
[1] = target: JAK1 (recombinant purified GST-tagged catalytic domain) (Homo sapiens (Human), UniProt P23458); test: Jak Biochemical HTRF Assay (JAK1); details: [ATP] 31.8 μM
Procedure, shortened: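 HTRF format, biotinylated peptide substrate; ATP-initiated reaction 120 min RT; EDTA quench + streptavidin-Dylight 650/Eu-anti-pY20 detection, 60 min RT; signal = 665/615 ratio ×10,000; normalized % inhibition, 4-parameter fit → IC50.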

[2] = target: JAK2 (recombinant purified GST-tagged catalytic domain) (Homo sapiens (Human), UniProt O60674); test: Jak Biochemical HTRF Assay (JAK2); details: [ATP] 8.5 μM
JAK2 (recombinant purified GST-tagged catalytic domain), sequence (O60674 849-1124): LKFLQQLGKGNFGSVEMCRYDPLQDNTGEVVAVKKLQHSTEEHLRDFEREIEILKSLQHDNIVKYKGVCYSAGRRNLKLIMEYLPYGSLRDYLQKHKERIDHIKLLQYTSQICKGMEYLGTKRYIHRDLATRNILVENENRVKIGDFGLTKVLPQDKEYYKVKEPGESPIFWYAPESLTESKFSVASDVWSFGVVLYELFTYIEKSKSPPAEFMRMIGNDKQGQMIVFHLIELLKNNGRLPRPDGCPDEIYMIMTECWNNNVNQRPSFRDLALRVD

JAK1 (recombinant purified GST-tagged catalytic domain), sequence (P23458 875-1153): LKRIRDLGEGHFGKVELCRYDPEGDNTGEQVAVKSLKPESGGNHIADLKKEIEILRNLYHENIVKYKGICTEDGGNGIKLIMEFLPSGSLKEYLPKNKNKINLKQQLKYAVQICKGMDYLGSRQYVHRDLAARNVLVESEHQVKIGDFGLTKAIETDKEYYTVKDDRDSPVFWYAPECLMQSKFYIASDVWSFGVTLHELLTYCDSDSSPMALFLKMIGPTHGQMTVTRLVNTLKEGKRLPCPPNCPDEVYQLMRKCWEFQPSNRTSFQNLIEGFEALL

| IC50 [1] [nM] | IC50 [2] [nM] | Compound |
| --- | --- | --- |
| 1.37 | 1.78 | CN(C)S(=O)(=O)c1ccc(Nc2nn(C3(CC#N)CCC(=O)CC3)c3cc[nH]c(=O)c23)cc1 [Example 18-39, 4-((1-(1-(cyanomethyl)-4-oxocyclohexyl)-4-oxo-4,5-dihydro-1H-pyrazolo[4,3-c]pyridin-3-yl)amino)-N,N-dimethylbenzenesulfonamide] |
| 0.03 | 2.53 | COC1CN([C@H]2CC[C@](CC#N)(n3nc(Nc4ccc(Cl)cc4)c4c(=O)[nH]ccc43)CC2)C1 [Example 18-8, Trans 2-(1-(3-((4-chlorophenyl)amino)-4-oxo-4,5-dihydro-1H-pyrazolo[4,3-c]pyridin-1-yl)-4-(3-methoxyazetidin-1-yl)cyclohexyl)acetonitrile] |
| 0.16 | 0.91 | CN(C)S(=O)(=O)c1ccc(Nc2nn(C3(CC#N)CCN(C(=O)O[C@H]4CCOC4)CC3)c3cc[nH]c(=O)c23)cc1 [Example 11-11, (S)-tetrahydrofuran-3-yl 4-(cyanomethyl)-4-(3-((4-(N,N-dimethylsulfamoyl)phenyl)amino)-4-oxo-4,5-dihydro-1H-pyrazolo[4,3-c]pyridin-1-yl)piperidine-1-carboxylate] |
| 0.2 | 0.55 | CS(=O)(=O)c1ccc(Nc2nn(C3(CC#N)CCN(c4ccc(C(F)(F)F)cn4)CC3)c3cc[nH]c(=O)c23)cc1 [Example 15-4, 2-(4-(3-((4-(methylsulfonyl)phenyl)amino)-4-oxo-4,5-dihydro-1H-pyrazolo[4,3-c]pyridin-1-yl)-1-(5 (trifluoromethyl)pyridin-2-yl)piperidin-4-yl)acetonitrile] |
| 0.04 | 0.06 | CC(C)OC(=O)[C@@H]1CC[C@@](CC#N)(n2nc(Nc3ccc4c(c3)CN(C(C)(C)C)S4(=O)=O)c3c(=O)[nH]ccc32)CO1 [Example 19-3, (2S,5S)-isopropyl 5-(3-((2-(tert-butyl)-1,1-dioxido-2,3-dihydrobenzo[d]isothiazol-5-yl)amino)-4-oxo-4,5-dihydro-1H-pyrazolo[4,3-c]pyridin-1-yl)-5-(cyanomethyl)tetrahydro-2H-pyran-2-carboxylate] |
| 0.05 | 0.11 | N#CC[C@]1(n2nc(Nc3ccc(S(=O)(=O)C(F)F)cc3)c3c(=O)[nH]ccc32)CC[C@H](N2CC(F)C2)CC1 [Example 18-28, Trans 2-(1-(3-((4-((difluoromethyl)sulfonyl)phenyl)amino)-4-oxo-4,5-dihydro-1H-pyrazolo[4,3-c]pyridin-1-yl)-4-(3-fluoroazetidin-1-yl)cyclohexyl)acetonitrile] |

Second part, the molecule before the results:

| Compound | IC50 [1] [nM] | IC50 [2] [nM] |
| --- | --- | --- |
| CC1CCN1S(=O)(=O)c1ccc(Nc2nn([C@]3(CC#N)CCCOC3)c3cc[nH]c(=O)c23)cc1 (single isomer, unassigned) [Example 5-109, [(3S)-3-{3-[(4-{[(2S or 2R)-2-methylazetidin-1-yl]sulfonyl}phenyl)amino]-4-oxo-4,5-dihydro-1H-pyrazolo[4,3-c]pyridin-1-yl}tetrahydro-2H-pyran-3-yl]acetonitrile] | 0.25 | 0.29 |
| CC(C)S(=N)(=O)c1ccc(Nc2nn([C@]3(CC#N)CCCOC3)c3cc[nH]c(=O)c23)cc1 (single isomer, unassigned) [Example 5-233, 2-((3S)-3-(4-oxo-3-((4-(propan-2-yl-(S or R)-sulfonimidoyl)phenyl)amino)-4,5-dihydro-1H-pyrazolo[4,3-c]pyridin-1-yl)tetrahydro-2H-pyran-3-yl)acetonitrile] | 0.36 | 0.4 |
| CN1Cc2cc(Nc3nn([C@]4(CC#N)CC[C@@H](C(=O)OC(C)(C)C)OC4)c4cc[nH]c(=O)c34)ccc2S1(=O)=O [Example 5-55, (2S,5S)-tert-butyl 5-(cyanomethyl)-5-(3-((2-methyl-1,1-dioxido-2,3-dihydrobenzo[d]isothiazol-5-yl)amino)-4-oxo-4,5-dihydro-1H-pyrazolo[4,3-c]pyridin-1-yl)tetrahydro-2H-pyran-2-carboxylate] | 0.05 | 0.12 |
| CC(C)(C)OC(=O)[C@@H]1CC[C@@](CC#N)(n2nc(Nc3ccc4nc(C(N)=O)ccc4c3)c3c(=O)[nH]ccc32)CO1 [Example 5-223, (2S,5S)-tert-butyl 5-(3-((2-carbamoylquinolin-6-yl)amino)-4-oxo-4,5-dihydro-1H-pyrazolo[4,3-c]pyridin-1-yl)-5-(cyanomethyl)tetrahydro-2H-pyran-2-carboxylate] | 0.07 | 0.82 |
| CC(C)(C)NC(c1ccc(Nc2nn([C@]3(CC#N)CC[C@@H](C(=O)OC(C)(C)C)OC3)c3cc[nH]c(=O)c23)cc1)C(F)(F)F (single isomer, unassigned) [Example 5-195, (2S,5S)-tert-butyl 5-(3-((4-((R or S)-1-(tert-butylamino)-2,2,2-trifluoroethyl)phenyl)amino)-4-oxo-4,5-dihydro-1H-pyrazolo [4,3-c]pyridin-1-yl)-5-(cyanomethyl)tetrahydro-2H-pyran-2-carboxylate] | 0.56 | 0.68 |
| CC(C)S(=N)(=O)c1ccc(Nc2nn([C@]3(CC#N)CCCOC3)c3cc[nH]c(=O)c23)cc1 (single isomer, unassigned) [Example 5-232, 2-((3S)-3-(4-oxo-3-((4-(propan-2-yl-(S or R)-sulfonimidoyl)phenyl)amino)-4,5-dihydro-1H-pyrazolo[4,3-c]pyridin-1-yl)tetrahydro-2H-pyran-3-yl)acetonitrile] | 0.27 | 0.6 |
| CC(C)NS(=O)(=O)c1ccc(Nc2nn(C3(CC#N)CCN(C(=O)OC(C)(C)C)CC3)c3cc[nH]c(=O)c23)cc1F [Example 5-295, tert-butyl 4-(cyanomethyl)-4-(3-((3-fluoro-4-(N-isopropylsulfamoyl)phenyl)amino)-4-oxo-4,5-dihydro-1H-pyrazolo[4,3-c]pyridin-1-yl)piperidine-1-carboxylate] | 0.42 | 0.6 |
| N#CC[C@@]1(n2nc(Nc3ccc(S(=O)(=O)N4CCOCC4)cc3)c3c(=O)[nH]ccc32)CCCOC1 [Example 5-204, [(3S)-3-(3-{[4-(morpholin-4-ylsulfonyl)phenyl]amino}-4-oxo-4,5-dihydro-1H-pyrazolo[4,3-c]pyridin-1-yl)tetrahydro-2H-pyran-3-yl]acetonitrile] | 0.29 | 0.48 |
| CC(C)(C)OC(=O)N1CCC(CC#N)(n2nc(Nc3ccc([C@@H](O)C(F)(F)F)cc3)c3c(=O)[nH]ccc32)CC1 (single isomer, unassigned) [Example 5-3, tert-butyl 4-(cyanomethyl)-4-[4-oxo-3-({4-[(1R or 1S)-2,2,2-trifluoro-1-hydroxyethyl]phenyl}amino)-4,5-dihydro-1H-pyrazolo[4,3-c]pyridin-1-yl]piperidine-1-carboxylate] | 0.43 | 1.11 |
| CC(C)(C)N[C@@H](c1ccc(Nc2nn([C@@]3(CC#N)CCOC[C@H]3F)c3cc[nH]c(=O)c23)cc1)C(F)(F)F (single isomer, unassigned) [Example 5-268, 2-((3S,4S or 3R,4R)-4-(3-((4-((S or R)-1-(tert-butylamino)-2,2,2-trifluoroethyl)phenyl)amino)-4-oxo-4,5-dihydro-1H-pyrazolo[4,3-c]pyridin-1-yl)-3-fluorotetrahydro-2H-pyran-4-yl)acetonitrile] | 2.63 | 4.78 |
